Data as given in US20080274892A1, “Novel Haloalkylsulfonanilide Derivative, Herbicide, and Method of Use Thereof” (priority 2005, published 2008).

Assays:
[1] = system: false pimpernel; assay: Test Example 1: herbicidal efficacy on rice paddy weeds pre-emergence; type: in vivo, Lindernia pyxidaria; conditions: 21 days
[2] = system: false pimpernel; assay: Test Example 2: herbicidal efficacy on rice paddy weeds post-emergence; type: in vivo, Lindernia pyxidaria; conditions: post-emergence, one leaf stage, 21 days after treatment
[3] = system: barnyard glass; assay: as above; type: in vivo, Echinochloa crus-galli; conditions: post-emergence, one leaf stage, 21 days after treatment
Method in brief: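 Plastic pots of 75 cm^2 were filled with clay loam soil and sown with barnyard glass and bulrush seeds, then topped with 75 cm^3 soil containing false pimpernel seeds. The pots were flooded to 5 cm water depth and held in a hot house. Twenty-one days after treatment, herbicidal efficacy was graded against an untreated control.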

[4] = system: paddy rice plant (cultivar: Nihonbare); assay: Test Example 3: phytotoxicity test for transplanted paddy rice plant; type: in vivo; conditions: transplanted rice, 21 days after treatment
Method in brief: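 Clay loam soil was placed in a 75 cm^2 plastic pot and flooded to a water depth of 5 cm. Two Nihonbare paddy rice plants at the two-leaf stage were transplanted 1 cm deep and grown in a hot house. After treatment, pots stayed in the hot house for 21 days, and phytotoxicity was then graded against an untreated control.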

[5] = system: bulrush; assay: Test Example 1: herbicidal efficacy on rice paddy weeds pre-emergence; type: in vivo, Scirpus juncoides; conditions: 21 days
[6] = system: bulrush; assay: Test Example 2: herbicidal efficacy on rice paddy weeds post-emergence; type: in vivo, Scirpus juncoides; conditions: post-emergence, one leaf stage, 21 days after treatment
[7] = dosage 1000 g/ha, treated 5 days after transplantation

SMILES | False pimpernel pre (herbicidal efficacy grade) ([1]; dosage 300 g/ha) | False pimpernel post (herbicidal efficacy grade) ([2]; dosage 300 g/ha) | Burnyard grass post (herbicidal efficacy grade) ([3]; dosage 300 g/ha) | Phytotoxicity to paddy rice ([4]; dosage 300 g/ha) | Bulrush pre (herbicidal efficacy grade) ([5]; dosage 300 g/ha) | Bulrush post (herbicidal efficacy grade) ([6]; dosage 300 g/ha) | False pimpernel pre (herbicidal efficacy grade) ([1]; dosage 1000 g/ha) | False pimpernel post (herbicidal efficacy grade) ([2]; dosage 1000 g/ha) | Burnyard grass post (herbicidal efficacy grade) ([3]; dosage 1000 g/ha) | Phytotoxicity to paddy rice [4, 7] | Bulrush pre (herbicidal efficacy grade) ([5]; dosage 1000 g/ha) | Bulrush post (herbicidal efficacy grade) ([6]; dosage 1000 g/ha) | other results
CCCCC1(C)CN(Cc2ccccc2N(C(=O)OC)S(=O)(=O)C(F)(F)F)C(=O)O1 (stereo not drawn) [Compound 1-128] |  |  |  |  |  |  |  |  |  |  |  |  | False pimpernel pre (herbicidal efficacy grade) ([1]; dosage 100 g/ha): 4 (90%-100% of herbicidal efficacy or phytotoxicity); False pimpernel post (herbicidal efficacy grade) ([2]; dosage 100 g/ha): 2 (40%-69% of herbicidal efficacy or phytotoxicity); Burnyard grass post (herbicidal efficacy grade) ([3]; dosage 100 g/ha): 3 (70%-89% of herbicidal efficacy or phytotoxicity); Phytotoxicity to paddy rice ([4]; dosage 100 g/ha as printed in the table line): 1 (1%-39% of herbicidal efficacy or phytotoxicity); Bulrush pre (herbicidal efficacy grade) ([5]; dosage 100 g/ha): 2 (40%-69% of herbicidal efficacy or phytotoxicity); Bulrush post (herbicidal efficacy grade) ([6]; dosage 100 g/ha): 3 (70%-89% of herbicidal efficacy or phytotoxicity)
COCC1(C)CN(Cc2ccccc2NS(=O)(=O)C(F)(F)F)C(=O)O1 (stereo not drawn) [Compound 1-137] | 4 (90%-100% of herbicidal efficacy or phytotoxicity) | 4 (90%-100% of herbicidal efficacy or phytotoxicity) | 4 (90%-100% of herbicidal efficacy or phytotoxicity) | 2 (40%-69% of herbicidal efficacy or phytotoxicity) | 4 (90%-100% of herbicidal efficacy or phytotoxicity) | 4 (90%-100% of herbicidal efficacy or phytotoxicity) |  |  |  |  |  |  | 
COCC1(C)CN(Cc2ccccc2N(C(=O)OCC(C)C)S(=O)(=O)C(F)(F)F)C(=O)O1 (stereo not drawn) [Compound 1-138] |  |  |  |  |  |  | 4 (90%-100% of herbicidal efficacy or phytotoxicity) | 4 (90%-100% of herbicidal efficacy or phytotoxicity) | 4 (90%-100% of herbicidal efficacy or phytotoxicity) | 2 (40%-69% of herbicidal efficacy or phytotoxicity) | 4 (90%-100% of herbicidal efficacy or phytotoxicity) | 4 (90%-100% of herbicidal efficacy or phytotoxicity) | 
Cc1c(Cl)ccc(OC(C)C(=O)N(c2ccccc2CN2CC(C)(C)OC2=O)S(=O)(=O)C(F)(F)F)c1Cl (stereo not drawn) [Compound 1-139] | 4 (90%-100% of herbicidal efficacy or phytotoxicity) | 4 (90%-100% of herbicidal efficacy or phytotoxicity) | 3 (70%-89% of herbicidal efficacy or phytotoxicity) | 3 (70%-89% of herbicidal efficacy or phytotoxicity) | 4 (90%-100% of herbicidal efficacy or phytotoxicity) | 4 (90%-100% of herbicidal efficacy or phytotoxicity) |  |  |  |  |  |  | 
CC1(c2ccccc2)CN(Cc2ccccc2NS(=O)(=O)C(F)(F)F)C(=O)O1 (stereo not drawn) [Compound 1-140] | 4 (90%-100% of herbicidal efficacy or phytotoxicity) | 4 (90%-100% of herbicidal efficacy or phytotoxicity) | 2 (40%-69% of herbicidal efficacy or phytotoxicity) | 1 (1%-39% of herbicidal efficacy or phytotoxicity) | 4 (90%-100% of herbicidal efficacy or phytotoxicity) | 4 (90%-100% of herbicidal efficacy or phytotoxicity) |  |  |  |  |  |  | 
CC1(C2CCCCC2)CN(Cc2ccccc2NS(=O)(=O)C(F)(F)F)C(=O)O1 (stereo not drawn) [Compound 1-154] | 4 (90%-100% of herbicidal efficacy or phytotoxicity) | 4 (90%-100% of herbicidal efficacy or phytotoxicity) | 1 (1%-39% of herbicidal efficacy or phytotoxicity) | 1 (1%-39% of herbicidal efficacy or phytotoxicity) | 4 (90%-100% of herbicidal efficacy or phytotoxicity) | 4 (90%-100% of herbicidal efficacy or phytotoxicity) |  |  |  |  |  |  | 
CC1(COc2ccccc2)CN(Cc2ccccc2NS(=O)(=O)C(F)(F)F)C(=O)O1 (stereo not drawn) [Compound 1-155] | 4 (90%-100% of herbicidal efficacy or phytotoxicity) | 4 (90%-100% of herbicidal efficacy or phytotoxicity) | 1 (1%-39% of herbicidal efficacy or phytotoxicity) | 1 (1%-39% of herbicidal efficacy or phytotoxicity) | 4 (90%-100% of herbicidal efficacy or phytotoxicity) | 4 (90%-100% of herbicidal efficacy or phytotoxicity) |  |  |  |  |  |  | 
CC(C)COC(=O)N(c1ccccc1CN1CC(C)(COc2ccccc2)OC1=O)S(=O)(=O)C(F)(F)F (stereo not drawn) [Compound 1-158] |  |  |  |  |  |  | 4 (90%-100% of herbicidal efficacy or phytotoxicity) | 4 (90%-100% of herbicidal efficacy or phytotoxicity) | 4 (90%-100% of herbicidal efficacy or phytotoxicity) | 1 (1%-39% of herbicidal efficacy or phytotoxicity) | 4 (90%-100% of herbicidal efficacy or phytotoxicity) | 4 (90%-100% of herbicidal efficacy or phytotoxicity) | 
COC(=O)N(c1ccccc1CN1CC(C)(COc2ccccc2)OC1=O)S(=O)(=O)C(F)(F)F (stereo not drawn) [Compound 1-159] |  |  |  |  |  |  | 4 (90%-100% of herbicidal efficacy or phytotoxicity) | 4 (90%-100% of herbicidal efficacy or phytotoxicity) | 4 (90%-100% of herbicidal efficacy or phytotoxicity) | 1 (1%-39% of herbicidal efficacy or phytotoxicity) | 4 (90%-100% of herbicidal efficacy or phytotoxicity) | 4 (90%-100% of herbicidal efficacy or phytotoxicity) | 
CC1CCCC12CN(Cc1ccccc1NS(=O)(=O)C(F)(F)F)C(=O)O2 (stereo not drawn) [Compound 1-160] | 4 (90%-100% of herbicidal efficacy or phytotoxicity) | 4 (90%-100% of herbicidal efficacy or phytotoxicity) | 4 (90%-100% of herbicidal efficacy or phytotoxicity) | 1 (1%-39% of herbicidal efficacy or phytotoxicity) | 4 (90%-100% of herbicidal efficacy or phytotoxicity) | 4 (90%-100% of herbicidal efficacy or phytotoxicity) |  |  |  |  |  |  | 
CC(C)COC(=O)N(c1ccccc1CN1CC2(CCCC2C)OC1=O)S(=O)(=O)C(F)(F)F (stereo not drawn) [Compound 1-161] |  |  |  |  |  |  | 4 (90%-100% of herbicidal efficacy or phytotoxicity) | 4 (90%-100% of herbicidal efficacy or phytotoxicity) | 4 (90%-100% of herbicidal efficacy or phytotoxicity) | 1 (1%-39% of herbicidal efficacy or phytotoxicity) | 4 (90%-100% of herbicidal efficacy or phytotoxicity) | 4 (90%-100% of herbicidal efficacy or phytotoxicity) | 
COC(=O)N(c1ccccc1CN1CC2(CCCC2C)OC1=O)S(=O)(=O)C(F)(F)F (stereo not drawn) [Compound 1-162] |  |  |  |  |  |  | 4 (90%-100% of herbicidal efficacy or phytotoxicity) | 4 (90%-100% of herbicidal efficacy or phytotoxicity) | 4 (90%-100% of herbicidal efficacy or phytotoxicity) | 1 (1%-39% of herbicidal efficacy or phytotoxicity) | 4 (90%-100% of herbicidal efficacy or phytotoxicity) | 4 (90%-100% of herbicidal efficacy or phytotoxicity) | 
